Measurements reported in patent US10253080B2, “Glucagon-like-peptide-2 (GLP-2) analogues” (Zealand Pharma A/S, priority 2012, dated 2019).
Non-standard residues stand in square brackets, D forms with d. Residues, ends and D or L forms follow the SMILES beside them. Aib = CC(C)(N)C(=O)O

T1: human GLP-2 receptor (Homo sapiens, UniProt O95838, D470N)
T1 construct: host or cells: HEK293
T1 sequence (O95838 1-553 D470N): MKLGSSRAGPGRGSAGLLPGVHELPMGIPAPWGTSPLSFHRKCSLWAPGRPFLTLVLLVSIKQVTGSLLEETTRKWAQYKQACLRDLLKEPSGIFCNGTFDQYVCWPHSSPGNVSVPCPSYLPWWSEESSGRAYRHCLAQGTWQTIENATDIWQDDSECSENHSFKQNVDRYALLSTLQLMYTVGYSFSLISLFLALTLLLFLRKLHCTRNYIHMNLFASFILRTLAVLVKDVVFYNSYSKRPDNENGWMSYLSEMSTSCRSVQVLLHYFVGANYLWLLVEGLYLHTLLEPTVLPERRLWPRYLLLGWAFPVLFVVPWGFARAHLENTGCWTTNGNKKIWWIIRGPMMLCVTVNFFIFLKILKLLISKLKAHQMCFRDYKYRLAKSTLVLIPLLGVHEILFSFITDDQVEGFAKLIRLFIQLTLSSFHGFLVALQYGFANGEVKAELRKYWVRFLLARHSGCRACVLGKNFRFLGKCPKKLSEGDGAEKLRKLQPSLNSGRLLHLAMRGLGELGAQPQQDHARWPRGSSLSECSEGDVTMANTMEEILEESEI


What was measured:
[1] = biological target: T2, human GLP-1 receptor (Homo sapiens, UniProt P43220); assay: GLP-1 receptor efficacy assay (cAMP AlphaScreen); format: cell-based; settings: HEK293 cells expressing human GLP-1R, cAMP response
T2 construct: expressed in transfected cells; host or cells: HEK293
T2 sequence (P43220 24-463): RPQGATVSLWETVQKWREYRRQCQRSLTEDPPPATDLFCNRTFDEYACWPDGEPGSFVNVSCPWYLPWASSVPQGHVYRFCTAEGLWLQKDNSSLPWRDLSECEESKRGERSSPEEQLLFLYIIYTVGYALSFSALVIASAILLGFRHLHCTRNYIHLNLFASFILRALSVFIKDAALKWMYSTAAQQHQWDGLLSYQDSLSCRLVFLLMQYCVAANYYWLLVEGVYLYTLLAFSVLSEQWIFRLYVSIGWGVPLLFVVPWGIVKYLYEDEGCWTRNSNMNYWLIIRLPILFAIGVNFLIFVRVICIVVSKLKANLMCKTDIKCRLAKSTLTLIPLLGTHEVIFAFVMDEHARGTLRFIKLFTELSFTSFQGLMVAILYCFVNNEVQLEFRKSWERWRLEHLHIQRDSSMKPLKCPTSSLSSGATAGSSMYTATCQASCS
Method: The 5′-end primers additionally encoded a near Kozak consensus sequence to ensure efficient translation. […] 48 hours after transfection, cells were seeded for limited dilution cloning and selected with 1 mg/ml G418 in the culture medium.
(§1) Data from test compounds eliciting an increase in the intracellular level of cAMP were normalized relative to the positive and negative control (vehicle) to calculate the EC50 and maximal response from the concentration response curve.

[2] = biological target: T1, human GLP-2 receptor; assay: GLP-2 receptor efficacy assay (cAMP AlphaScreen); format: cell-based; settings: HEK293 cells expressing hGLP-2 receptor, cAMP response; read-out: GLP-2R EC50
Method: Test compounds inducing an increase in the intracellular level of cAMP were tested in this assay, and the response normalized relative to a positive and negative control to calculate the EC50 and maximal response from the concentration response curve.
The hGLP2-R was purchased from MRC-geneservice, Babraham, Cambridge as an image clone: 5363415 (11924-117). For subcloning into an mammalian expression vector, primers for subcloning were obtained from DNA-Technology, Risskov, Denmark. The 5′ and 3′ primers used for the PCR reaction include terminal restriction sites for cloning and the context of the 5′ primer is modified to a Kozak consensus without changing the sequence of the product encoded by the ORF. A standard PCR reaction was run using image clone 5363415 (11924-117) as a template with the above mentioned primers and Polymerase Herculase II Fusion in a total vol, of 50 μl. The generated PCR product was purified using GFX PCR and Gel band purification kit, digested with restriction enzymes and cloned into the mammalian expression vector using Rapid DNA Ligation Kit. Ligation reaction was transformed to XL10 Gold Ultracompetent cells and colonies were picked for DNA production using Endofree Plasmid maxi kit. Subsequent sequence analysis was conducted by MWG Eurofins, Germany.
HEK293 cells were transfected using the Lipofectamine PLUS transfection method. The day before transfection, HEK293 cells were seeded in two T75 flasks at a density of 2×10^6 cells/T75 flask in cell culturing medium without antibiotics. On the day of transfection, cells were washed with 1×DPBS and medium was replaced with Optimem to a volume of 5 mL/T75 flask before addition of Lipofectamine-plasmid complexes were added gently and drop wise to the cells in T75 flasks and replaced with growth medium after 3 hours and again to growth medium supplemented with 500 μg/mL G418 after 24 hours. After 4 weeks in G418 selection, colonies were picked and tested in a functional assay. One colony was selected for use in compound profiling.
as §1

[3] = Oral glucose tolerance test (OGTT) in normal mice; format: in vivo, C57BL/6J male mice; settings: single SC dose 1 h before 2 g/kg oral glucose; vs vehicle; FIG. 2
Method: Normal chow-fed C57BL/6J male mice were used. The mice were kept in standard housing conditions (light-, temperature-, and humidity-controlled room (12:12 h light-dark cycle, with lights on at 06.00-18.00 h; 24° C.; 50% relative humidity)), and each dosing group consisted of 10 animals.
Prior to the oral glucose tolerance test (OGTT), animals were fasted for 5 h. One hour before glucose challenge (time t=−60 min) baseline blood glucose was measured. Immediately after the blood sample, the animals were dosed once subcutaneously with compound at the indicated amount or PBS (vehicle). One hour later at t=0 min, a 2 g/kg oral gavage of glucose (0.4 g/ml in water diluted from glucose SAD […]; dose volume 5 ml/kg) was given to the animals. After glucose administration, tail vein blood was drawn for glucose measurements at t=15, 30, 60, 120 min.

[4] = DPP IV degradation and renal clearance (Tavares et al. 2000); cited from earlier work
[5] = Effect in diet-induced obese mice (intestinal mass, glucose homeostasis); format: in vivo, C57BL/6J male mice; settings: SC twice daily for 14 days
Method: Diet-induced obesity was generated by feeding C57BL/6J male mice with high fat diet (Research Diet 60% fat (D12492) Research Diet Inc., New Brunswick, USA). The mice were kept in standard housing conditions (light-, temperature-, and humidity-controlled room (12:12 h light-dark cycle, with lights on at 06.00-18.00 h; 24° C.; 50% relative humidity)).
The vehicle treated dosing group contained 8 animals and the compound 7 treated groups consisted of 12 animals/group. All animals were mock treated for 7 days (once daily, SC, 100 μl vehicle) to acclimatize the animals to handling and injections, followed by treatment (vehicle or compound 7) for 14 days (twice daily, SC, 5 ml/kg). Animals were fasted overnight (day 11-12) and blood was drawn for analysis of glucose and insulin. On day 14, animals were sacrificed and small and large intestines removed, washed and weighed.

[6] = Effect on intestinal weight in normal rats; format: in vivo, Wistar male rats; settings: SC once daily for four days, weighed day 5; FIG. 3
Method: Normal chow-fed Wistar male rats were used. The rats were kept in standard housing conditions (light-, temperature-, and humidity-controlled room (12:12 h light-dark cycle, with lights on at 06.00-18.00 h; 24° C.; 50% relative humidity)), and each dosing group consisted of 6 animals. Rats were dosed once daily via the subcutaneous route, for four days with compound at the indicated amount or PBS (vehicle). On day five, rats were sacrificed and small intestinal weight wet measured.

[7] = biological target: human GLP-2 receptor (hGLP2-R), splice variant rs17681684 (human, UniProt O95838); assay: cell-based or functional assay

Molecule	EC50 [1]	EC50 [2]	other results
H-HGDGSFSSELATILDGKAARDFINWLIQTKITD-OH [Compound 7] [listing 1 of 2 here]	–	0.2 nM	–
H-HGEGTFTSDLSKQMEGQAVRDFIEWLIQTKITD-OH [Compound 5] [listing 1 of 2 here]	1 nM	–	–
H-HGEGTFTSDLSKQMESKAARDFIEWLIQTKITD-OH [Compound 6]	–	0.2 nM	–
His-Ala-Asp-Gly-Ser-Phe-Ser-Asp-Glu-Met-Asn-Thr-Ile-Leu-Asp-Asn-Leu-Ala-Ala-Arg-Asp-Phe-Ile-Asn-Trp-Leu-Ile-Gln-Thr-Lys-Ile-Thr-Asp [GLP-2(1-33)]	–	–	half life [4]: about 7 minutes
H-HGDGSFSSEMNTILDSQAARDFINWLIQTKITD-OH [Compound 4] [listing 1 of 2 here]	–	0.06 nM	–
H-HGDGSFSDEMNTILDGQAARDFINWLIQTK-NH2 [Compound 3]	9 nM	–	–
H-HGDGSFSSEMNTILDSQAARDFINWLIQTKITD-OH [Compound 4] [listing 2 of 2 here]	25 nM	–	–
H-HGEGTFTSDLSKQMEGQAVRDFIEWLIQTKITD-OH [Compound 5] [listing 2 of 2 here]	–	0.2 nM	–
H-HGDGSFSSELATILDGKAARDFINWLIQTKITD-OH [Compound 7] [listing 2 of 2 here]	0.78 nM	–	fasting blood glucose ([5]; overnight fast day 11-12, vs vehicle, FIG. 5A): reduced; fasting plasma insulin levels ([5]; overnight fast day 11-12, vs vehicle, FIG. 5B): reduced; small intestinal mass ([5]; vs vehicle, FIG. 4A): significantly increased; large intestinal mass ([5]; vs vehicle, FIG. 4B): significantly increased; HOMA-IR index ([5]; vs vehicle, FIG. 5C): lower HOMA-IR index than vehicle treated controls; small intestinal wet weight [6]: increased intestinal weight in a dose dependant manner
HDEFERHAEGTFTSDVSSYLEGQAAKEFIAWLVKGRG [GLP-1]	–	–	GLP-2R EC50 (nM), cAMP AlphaScreen [7]: > 1000 nM

Now from value to molecule, other results behind:

EC50 [1]	EC50 [2]	Molecule	other results
> 200 nM	–	CC[C@H](C)[C@H](NC(=O)[C@H](Cc1ccccc1)NC(=O)[C@H](CC(=O)O)NC(=O)[C@H](CCCNC(=N)N)NC(=O)[C@H](C)NC(=O)[C@H](C)NC(=O)[C@H](CC(C)C)NC(=O)[C@H](CC(N)=O)NC(=O)[C@H](CC(=O)O)NC(=O)[C@H](CC(C)C)NC(=O)[C@@H](NC(=O)[C@@H](NC(=O)[C@H](CC(N)=O)NC(=O)[C@H](CCSC)NC(=O)[C@H](CCC(=O)O)NC(=O)[C@H](CC(=O)O)NC(=O)[C@H](CO)NC(=O)[C@H](Cc1ccccc1)NC(=O)[C@H](CO)NC(=O)CNC(=O)[C@H](CC(=O)O)NC(=O)CNC(=O)[C@@H](N)Cc1c[nH]cn1)[C@@H](C)O)[C@@H](C)CC)C(=O)N[C@@H](CC(N)=O)C(=O)N[C@@H](Cc1c[nH]c2ccccc12)C(=O)N[C@@H](CC(C)C)C(=O)N[C@H](C(=O)N[C@@H](CCC(N)=O)C(=O)N[C@H](C(=O)N[C@@H](CCCCN)C(=O)N[C@H](C(=O)N[C@H](C(=O)N[C@@H](CC(=O)O)C(=O)O)[C@@H](C)O)[C@@H](C)CC)[C@@H](C)O)[C@@H](C)CC [GLP-2 (Gly2), reference compound]	–
–	0.008 nM	H-HGEGTFTSDLSTILENKAARDFIEWLIQTKITD-OH [Compound 8] [listing 1 of 2 here]	–
0.07 nM	–	H-HGDGSFSDEMNTILDGQAARDFINWLIQTK-NH2 [Compound 12]	blood glucose response in OGTT [3]: significantly reduced the blood glucose response
–	0.2 nM	H-HGDGSFSSELATILDGQAARDFIAWLIQTKITD-OH [Compound 11] [listing 1 of 2 here]	–
18 nM	–	H-HGEGSFSSDLSTILEGKAARDFIEWLIQTKITD-OH [Compound 13] [listing 1 of 2 here]	–
–	0.1 nM	H-HGEGSFSSDLSTILEGKAARDFIEWLIQTKITD-OH [Compound 13] [listing 2 of 2 here]	–
0.34 nM	–	H-HGDGSFSSELATILDGQAARDFIAWLIQTKITD-OH [Compound 11] [listing 2 of 2 here]	–
–	0.2 nM	H-HGEGSFSSDLSTILENKAARDFIEWLIQTKITD-OH [Compound 9] [listing 1 of 2 here]	–
16 nM	–	H-HGEGTFTSDLSTILENKAARDFIEWLIQTKITD-OH [Compound 8] [listing 2 of 2 here]	–
9.1 nM	–	H-HGEGSFSSDLSTILENKAARDFIEWLIQTKITD-OH [Compound 9] [listing 2 of 2 here]	–
0.03 nM	–	CC[C@H](C)[C@H](NC(=O)[C@H](Cc1ccccc1)NC(=O)[C@H](CC(=O)O)NC(=O)[C@H](CCCNC(=N)N)NC(=O)[C@H](C)NC(=O)[C@H](C)NC(=O)[C@H](CCCCN)NC(=O)CNC(=O)[C@H](CC(=O)O)NC(=O)[C@H](CC(C)C)NC(=O)[C@@H](NC(=O)[C@@H](NC(=O)[C@H](CC(N)=O)NC(=O)[C@H](CC(C)C)NC(=O)[C@H](CCC(=O)O)NC(=O)[C@H](CC(=O)O)NC(=O)[C@H](CO)NC(=O)[C@H](Cc1ccccc1)NC(=O)[C@H](CO)NC(=O)CNC(=O)[C@H](CC(=O)O)NC(=O)C(C)(C)NC(=O)[C@@H](N)Cc1c[nH]cn1)[C@@H](C)O)[C@@H](C)CC)C(=O)N[C@@H](CC(N)=O)C(=O)N[C@@H](Cc1c[nH]c2ccccc12)C(=O)N[C@@H](CC(C)C)C(=O)N[C@H](C(=O)N[C@@H](CCC(N)=O)C(=O)N[C@H](C(=O)N[C@@H](CCCCN)C(N)=O)[C@@H](C)O)[C@@H](C)CC [Compound 10] (H-H[Aib]DGSFSDELNTILDGKAARDFINWLIQTK-NH2)	–
